Source: publication PMC7794297
Read-outs that look alike come from different tables or passages of the source.

Key:
[1] = biological target: bovine serum albumin (BSA) (Bos taurus, UniProt P02769); assay: BSA tolerance to DMSO, Trp emission fluorescence
glucose oxidase (GOx) = glucose oxidase (GOx) (Aspergillus niger, UniProt P13006)
[2] = 10 % v/v DMSO, Supplementary Figure 48 b
[3] = 20 % v/v DMSO, Supplementary Figure 48 b
[4] = 60 % v/v DMSO, Supplementary Figure 48 b

Chain of glucose oxidase (GOx) (P13006 17-605): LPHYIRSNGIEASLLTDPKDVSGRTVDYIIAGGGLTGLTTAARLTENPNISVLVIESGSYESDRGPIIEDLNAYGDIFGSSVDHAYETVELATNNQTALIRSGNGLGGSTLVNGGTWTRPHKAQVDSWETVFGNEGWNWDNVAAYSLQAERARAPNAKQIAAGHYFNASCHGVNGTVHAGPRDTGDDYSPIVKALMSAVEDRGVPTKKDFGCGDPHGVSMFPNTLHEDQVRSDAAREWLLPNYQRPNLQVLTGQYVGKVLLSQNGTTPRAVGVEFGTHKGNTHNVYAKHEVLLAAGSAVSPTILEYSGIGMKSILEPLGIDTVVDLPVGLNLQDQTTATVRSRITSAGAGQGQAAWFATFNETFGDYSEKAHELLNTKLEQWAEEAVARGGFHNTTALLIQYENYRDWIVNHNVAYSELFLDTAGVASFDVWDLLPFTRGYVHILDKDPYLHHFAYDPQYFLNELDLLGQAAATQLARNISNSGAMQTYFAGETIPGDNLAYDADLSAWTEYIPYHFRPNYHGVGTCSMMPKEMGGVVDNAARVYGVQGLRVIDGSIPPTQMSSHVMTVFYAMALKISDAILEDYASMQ
Chain of bovine serum albumin (BSA) (P02769 25-607): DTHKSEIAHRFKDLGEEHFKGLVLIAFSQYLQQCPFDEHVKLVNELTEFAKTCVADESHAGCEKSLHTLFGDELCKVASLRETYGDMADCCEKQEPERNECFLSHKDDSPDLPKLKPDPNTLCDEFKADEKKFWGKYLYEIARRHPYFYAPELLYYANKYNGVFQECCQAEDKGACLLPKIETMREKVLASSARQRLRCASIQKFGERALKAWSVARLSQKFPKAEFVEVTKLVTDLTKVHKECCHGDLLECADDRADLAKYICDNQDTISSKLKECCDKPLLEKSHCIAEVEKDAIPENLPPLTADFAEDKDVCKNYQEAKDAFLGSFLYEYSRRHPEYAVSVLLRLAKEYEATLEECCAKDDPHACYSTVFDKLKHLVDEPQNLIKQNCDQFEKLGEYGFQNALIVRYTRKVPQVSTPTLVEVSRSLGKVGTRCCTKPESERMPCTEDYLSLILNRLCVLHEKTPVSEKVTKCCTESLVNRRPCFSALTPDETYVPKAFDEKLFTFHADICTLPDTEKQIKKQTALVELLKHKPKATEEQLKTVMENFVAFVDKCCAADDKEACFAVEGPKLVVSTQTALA

Q: What does the source list for C[S+](C)[O-] [DMSO]?
A: DMSO concentration tolerated by BSA [1]: up to 10%; time until total completion of homodimerization (20% (v/v)): 4 days; Kobs (20% (v/v) DMSO, 0% Secox, 190 μM 3, Tris pH 7.8, 6 °C): 0.068 ± 0.001 M⁻¹ s⁻¹; DMSO concentration tolerated by GOx (no shift of Trp emission maximum) (glucose oxidase (GOx)): up to 20%; Fluorescence Emission (Average Value) (glucose oxidase (GOx); 1 % v/v DMSO): 4921084; Wavelenght (nm) of Trp emission maximum (glucose oxidase (GOx); 1 % v/v DMSO): 329 nm; Fluorescence Emission (Average Value) (glucose oxidase (GOx); 2.5 % v/v DMSO): 5438068; Wavelenght (nm) of Trp emission maximum (glucose oxidase (GOx); 2.5 % v/v DMSO): 329 nm; Wavelenght (nm) of Trp emission maximum (glucose oxidase (GOx); 2.5 % v/v DMSO, Supplementary Figure 48 b): 338 nm; Fluorescence Emission (Average Value) (glucose oxidase (GOx); 5 % v/v DMSO): 4507601; Wavelenght (nm) of Trp emission maximum (glucose oxidase (GOx); 5 % v/v DMSO): 329 nm; Wavelenght (nm) of Trp emission maximum (glucose oxidase (GOx); 5 % v/v DMSO, Supplementary Figure 48 b): 337 nm; Fluorescence Emission (Average Value) (glucose oxidase (GOx); 7.5 % v/v DMSO): 4900904; Wavelenght (nm) of Trp emission maximum (glucose oxidase (GOx); 7.5 % v/v DMSO): 329 nm; Fluorescence Emission (Average Value) (glucose oxidase (GOx); 10 % v/v DMSO): 4964780; Wavelenght (nm) of Trp emission maximum (glucose oxidase (GOx); 10 % v/v DMSO): 329 nm; Fluorescence Emission (at maximum) (glucose oxidase (GOx); [2]): 7117020; Wavelenght (nm) of Trp emission maximum (glucose oxidase (GOx); [2]): 336 nm; Fluorescence Emission (Average Value) (glucose oxidase (GOx); 20 % v/v DMSO): 5321027; Wavelenght (nm) of Trp emission maximum (glucose oxidase (GOx); 20 % v/v DMSO): 329 nm; Fluorescence Emission (at maximum) (glucose oxidase (GOx); [3]): 7139475; Wavelenght (nm) of Trp emission maximum (glucose oxidase (GOx); [3]): 335 nm; Fluorescence Emission (Average Value) (glucose oxidase (GOx); 40 % v/v DMSO): 6356217; Wavelenght (nm) of Trp emission maximum (glucose oxidase (GOx); 40 % v/v DMSO): 336 nm; Fluorescence Emission (Average Value) (glucose oxidase (GOx); 50 % v/v DMSO): 10423932; Wavelenght (nm) of Trp emission maximum (glucose oxidase (GOx); 50 % v/v DMSO): 337 nm; Fluorescence Emission (Average Value) (glucose oxidase (GOx); 60 % v/v DMSO): 13490702; Wavelenght (nm) of Trp emission maximum (glucose oxidase (GOx); 60 % v/v DMSO): 338 nm; Fluorescence Emission (at maximum) (glucose oxidase (GOx); [4]): 8900408; Wavelenght (nm) of Trp emission maximum (glucose oxidase (GOx); [4]): 327 nm; Fluorescence Emission (Average Value) (glucose oxidase (GOx); 70 % v/v DMSO): 30698968; Wavelenght (nm) of Trp emission maximum (glucose oxidase (GOx); 70 % v/v DMSO): 339 nm; Fluorescence Emission (Average Value) (glucose oxidase (GOx); 80 % v/v DMSO): 28715570; Wavelenght (nm) of Trp emission maximum (glucose oxidase (GOx); 80 % v/v DMSO): 344 nm; Wavelenght (nm) of Trp emission maximum (glucose oxidase (GOx); 97 % v/v DMSO): 349 nm; Fluorescence Emission (at maximum) (glucose oxidase (GOx); 97 % v/v DMSO, Supplementary Figure 48 b): 24089455
